Data: PubChem BioAssay (NCI)
Where “and” joins values, the source holds several entries; their conditions need not be identical. Equal entries are not always repeated.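 In this assay, cells in 96-well plates receive the compound at five concentrations for 48 hours. Endpoints are linearly interpolated between the surrounding concentrations. At the GI50, growth is halved. TGI marks complete inhibition of growth.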

Tested on: MDA-MB-468 breast
Assay: NCI anticancer screen, dose series, 48 h

Row | SMILES | GI50 | TGI
1 | Cc1ccc(C2CC(c3ccc(Nc4ccnc5cc(Cl)ccc45)cc3)=NN2C=O)cc1 (configuration not stated) | 1.51 µM | > 100 µM
2 | COc1cc(NC2CCCCC2O)c2nc(-c3ccc(Cl)cc3)ccc2c1 (configuration not stated) | 7.48 µM | 98.4 µM
3 | O=CN1N=C(c2cccc(Nc3ccnc4cc(Cl)ccc34)c2)CC1c1ccc(Cl)cc1 (configuration not stated) | 0.422 µM | 3.17 µM
4 | CCOC(=O)[C@@H]1CSC(CC)=C(C(=O)O)N1 | > 100 µM | > 100 µM
5 | COc1cc2cc(Oc3cccc(NC(=O)Nc4cc(C(F)(F)F)cc(C(F)(F)F)c4)c3)c(C)nc2cc1OC | 1.08 µM | 3.96 µM
6 | C#C[C@]1(O)CC[C@H]2[C@@H]3CC=C4c5nc(N)sc5CC[C@]4(C)[C@H]3CC[C@@]21C | 2.52 µM | 7.03 µM
7 | CCCCCCCCCCCCCCCC[n+]1ccccc1 | 0.104 µM and 0.194 µM | 0.428 µM and 0.793 µM
8 | CCn1c(-c2nonc2N)nc2cnc(Oc3cccc(NC(=O)c4ccc(N(C)C)cc4)c3)cc21 | 10.7 µM | > 25 µM
9 | O=c1[nH]cnc2n[nH]nc12 | 1.31 µM | 12.7 µM
10 | C[C@@H]1CCc2ncc(F)cc2[C@H]2CCCN2c2ccn3ncc(c3n2)C(=O)N1 | 76.4 µM | > 100 µM
11 | O=[N+]([O-])/C=C/c1ccc(Cl)cc1[N+](=O)[O-] | 1.92 µM | 3.69 µM
12 | CC(O)[C@H](NC(=O)N[C@@H](CC(N)=O)c1nc(N2CCNCC2)no1)C(=O)O (some centres not stated) | > 100 µM | > 100 µM
13 | CN(C)c1ccc(-c2ccc(-c3ccc(C(=N)N)cn3)o2)cc1 | 1.39 µM | 3.05 µM
14 | COc1cc(/C=C2\SC(N3CCCCC3)=NC2=O)ccc1OCCCCCCOc1ccc(/C=C2\SC(N3CCCCC3)=NC2=O)cc1OC | 10.3 µM | 37.2 µM
15 | CCOC(=O)c1c(CN2CCN(C)CC2)nc2ccc(Cl)cc2c1-c1ccccc1 | 1.8 µM | 4.43 µM
16 | COc1cccc(-c2nc3sccn3c2-c2ccnc(NCCCNS(=O)(=O)c3ccccc3)c2)c1 | 2.47 µM | 7.83 µM
17 | COc1ccc(-c2cc(/C=C/C(=O)c3ccc(N)cc3)[nH]n2)cc1 | 0.43 µM | 2.09 µM
18 | COc1cc(-c2nn(-c3cccc(NC(=O)CCNc4ccc(N5CCOCC5)cc4)c3)cc2-c2ccncc2)ccc1Cl | 2.01 µM | 22.9 µM
19 | COc1cc(-c2nn(-c3cccc(NC(=O)CCN4CCN(c5ccccc5)CC4)c3)cc2-c2ccncc2)ccc1Cl | 3.03 µM | 51.4 µM
20 | CN1CC[C@H](c2c(O)cc(O)c3c(=O)cc(-c4ccccc4Cl)oc23)[C@H](O)C1 | 0.0718 µM | 0.269 µM
21 | COc1cc2ncnc(Oc3cccc(NC(=O)Nc4cc(C(C)(C)C(F)(F)F)on4)c3)c2cc1OC | 1.04 µM and 1.26 µM | 6.01 µM and 6.4 µM

Row | SMILES | GI50 | TGI
22 | CCO/C=N/C1=C(C#N)C(c2ccc(OC)cc2)c2sc3c(CC)cccc3c2O1 (configuration not stated) | 2.5 µM | 10.3 µM
23 | CC(C)OP(=O)(O)c1ncc(-c2ccc(C(F)(F)F)cc2)c(NC2CCCCCC2)n1 | 11.2 µM | > 100 µM
24 | CCc1ccc2c(c1)N(CCO)C1=C(C(=O)OC1)C2c1cc(OC)c(OC)c(OC)c1 (configuration not stated) | 0.0897 µM | 0.347 µM
25 | CCOC(=O)c1c(NC(=O)c2ccc(Cl)cc2)sc2c(CN(C)C)c(O)ccc12 | 3.48 µM | 18.6 µM
26 | CS(=O)(=O)Nc1cc(-c2ccc3ncnc(Nc4cccc(Cl)c4)c3c2)cnc1Cl | 0.145 µM | 0.59 µM
27 | COc1ccc(C(O)c2cc3c(N)c(C(=O)Nc4cccc(Br)c4C)sc3nc2C)cc1 (configuration not stated) | 0.125 µM | 19.1 µM
28 | CCOc1ccc2cc(-c3nn(CC4CCNCC4)c4ncnc(N)c34)ccc2c1 | 14.3 µM | 30.2 µM
29 | COc1ccc2c(c1)C(=O)c1c-2c(OCCN(C)C)nc2cc(OC)c(OC)cc12 | 3.95 µM | 19 µM
30 | NC(=O)/C(=C/n1cnc(-c2cc(C(F)(F)F)cc(C(F)(F)F)c2)n1)c1cncnc1 | 0.373 µM | 3.01 µM
31 | Cc1cc(NN=C(c2ccc(O)cc2)c2ccc(O)cc2)c([N+](=O)[O-])cc1[N+](=O)[O-] | 4.91 µM | 36.7 µM
32 | C=CC(=O)Nc1cc2c(Nc3ccc(F)c(Cl)c3)ncnc2cc1C#CC(C)(C)N1CCN(C)CC1 | 0.00795 µM | 0.401 µM
33 | COc1ccc2c(c1OC)O/C(=C\c1ncc([N+](=O)[O-])n1C)C2=O | 2.51 µM | 8.23 µM
34 | COc1ccc(/C=C/C(=O)c2cc3c(N)c(C(=O)Nc4ccc(OC)cc4)sc3nc2C)cc1 | 0.135 µM | > 50 µM
35 | O=C1Nc2ccc3c(c2/C1=C\c1cc2c(cc1Br)OCO2)OCO3 | 0.295 µM | 0.978 µM
36 | CCOC(=O)/C(=C\c1ccc2ccccc2c1)P(=O)(OCC)OCC | 1.9 µM | 3.83 µM
37 | CC(=O)Oc1cc2cnc3c4cc(OC(C)=O)c(OC(C)=O)cc4ccc3c2cc1OC(C)=O | 1.2 µM | 4.44 µM
38 | CC1(C)N=C(N)N=C(N)N1c1cccc(CCc2ccccc2)c1 | 0.0745 µM | 2.51 µM
39 | CC[C@H]1OC(=O)[C@H](C)[C@@H](O[C@H]2C[C@@](C)(OC)[C@@H](O)[C@H](C)O2)[C@H](C)[C@@H](O[C@@H]2O[C@H](C)C[C@H](N(C)C)[C@H]2O)[C@](C)(OC)C/C(C)=C2/O[C@@]1(C)C=C2C | 1.82 µM | 3.5 µM
40 | COc1ccc(C2=Nn3c(nnc3-n3nc(C)cc3C)SC2)cc1 | 0.14 µM | > 100 µM
41 | COc1cc2c3cc1Oc1c(OC)c(OC)cc4c1C(Cc1ccc(O)c(c1)Oc1ccc(cc1)CC3N(C)CC2)N(C)CC4 (configuration not stated) | 8.21 µM | 23.1 µM
